Measured values from US12583818B2 (DAEGU-GYEONGBUK MEDICAL INNOVATION FOUNDATION, priority 2020, dated 2026).
pIC50: −log10 of the molar value. Where two headings read alike, the source gives them in different places.

Key:
[1] = test system: A2780-SP cells (ovarian cancer stem cells); assay: Sphere cell viability of A2780-SP cells (Cell-titer Glo); assay type: cell-based
How it was run: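 A2780-SP ovarian cancer stem cells grown as spheres in ultra-low-attachment wells (1,500 cells/well) in neurobasal stem-cell medium with bFGF, EGF, B27. Compound added the day after plating, re-dosed on day 4, 8-day culture total; viability by CellTiter-Glo luminescence.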

[2] = test system: MCF7 cells (breast cancer cells); assay: Cell viability of MCF7 cells (Cell-titer Glo); assay type: cell-based; conditions: Homo sapiens
Procedure: (§1) In order to confirm the inhibitory effect of the compound represented by formula 1 according to the present invention on the growth of MCF7, MCF7-SP, A2780 or A2780-SP cells, the following experiment was performed, and the results are shown in Tables 4 and 5 below.
MCF7 cells (breast cancer cells) were plated in a 96-well plate at the density of 3000 viable cells per well, and cultured in DMEM/High glucose medium supplemented with 10% FBS and 1% penicillin/streptomycin.
(§2) On the next day of culture, the cells were treated with the compound of Example 71, 76, 80, 84, 92, 99, 100 or 119, followed by culture for 3 days. Cell viability was evaluated by Cell-titer Glo (Promega, WC, USA), and luciferase activity was detected using a Tecan plate reader (Biocompare, USA).

[3] = test system: MCF7-SP cells (breast cancer stem cells); assay: Sphere cell viability of MCF7-SP cells (Cell-titer Glo); assay type: cell-based
Procedure: as §1
On the other hand, MCF7-SP cells (breast cancer stem cells) were plated in an Ultra-Low Attachment round bottom 96-well plate (corning) at the density of 1,500 viable cells per well, and cultured in cancer stem cell medium. The cancer stem cell medium is composed of the neurobasal medium supplemented with 20 ng/ml of bFGF, 10 ng/ml of EGF, 2.5 […], HEPES, Glutamax and B27.
as §2, with “for 8” for “for 3”, “days. The medium containing the compound was added thereto once again on the 4th day. Sphere cell” for “days. Cell”

[4] = test system: A2780 cells (ovarian cancer cells); assay: Cell viability of A2780 cells (Cell-titer Glo); assay type: cell-based; conditions: Homo sapiens
How it was run: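 A2780 ovarian cancer cells seeded at 3000 viable cells/well in RPMI-1640 with 10% FBS, dosed the next day and grown 3 days. Viability measured by Cell-titer Glo luminescence.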

[5] = test system: MDA-MB 231 triple negative breast cancer cell line; assay: MDA-MB 231 protein expression inhibition (Western blotting, cycline D1 vs Vinculin); assay type: cell-based; conditions: Homo sapiens, compound 10 μM, 72 hours, cycline D1 Western blot, read-out: MBA-MB-231 (amount of the protein compared to the DMSO-treated control group)
Procedure: In order to confirm the ability of the compound represented by formula 1 according to the present invention to inhibit the protein expression of MDA-MB 231 triple negative breast cancer cell line, the following experiment was performed, and the results are shown in Table 3 below.
MDA-MB-231 cells were cultured in a 5% CO2 incubator at 37° C. using RPMI medium supplemented with 10% FBS and 1% penicillin/streptomycin.
The cells were washed with PBS once a day, and then replaced with a new medium. The cells grown at the density of at least 90% 1 day before the experiment were detached using trypsin/EDTA, and then plated at the density of 100,000 per well in a 6-well plate.
On the next day of culture, the compound prepared in each example was treated at a concentration of 10 μM, and DMSO was treated at a concentration of 0.1% of the total as the control, followed by incubation for 72 hours. After 72 hours, the cells were washed twice with PBS, collected by scraping, and centrifuged at 13,000 rpm for 3 minutes to remove all the supernatant and only cells were taken.
RIPA buffer (containing 1× protease inhibitor and phosphatase inhibitor) was added to the prepared cells (80 μl/well), and the plate was shaken once every 5 minutes to disrupt the cells for a total of 15 minutes. The disrupted cells were centrifuged at 13,000 rpm for 15 minutes to collect only the supernatant protein. The obtained protein was quantified using a BCA protein quantification kit (Pierece, MA, USA), and a total of 10 μg of the protein was used for Western blotting.
The protein sample was isolated by 10% SDS-PAGE, and transferred to a PVDF membrane. Anti-human cycline D1 antibody (Cell signal) and anti-Vinculin antibody were bound to the protein sample, and the expression of the protein was measured by using an ECL reagent and LAS4000 equipment. The measurement results were quantified and generalized using ImageJ. The results are shown in Table 3 below by dividing the grades A to D according to the amount of the protein compared to the DMSO-treated control group.

[6] = biological target: T1, Pin1 (Homo sapiens, UniProt Q13526); assay: Evaluation of Pin1 enzyme inhibitory activity (Sensolyte Green Pin1 assay kit); assay type: biochemical
T1 construct: purchased Anaspec
How it was run: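 Compounds were tested at four working concentrations (100, 10, 1, 0.1 μM), mixed with Pin1 (50 μg/ml stock dilution), developer and substrate (1 μM as prepared). Fluorescence at 490/520 nm was recorded after 2 h in the dark at room temperature. Results were grouped into grades A–D by inhibiting concentration.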

[7] = 192 h, sphere cell viability, culture for 8 days, read-out: A2780-SP
[8] = Table 5, read-out: the concentration (second list of b710, cell line not named; matches A2780-SP column)
[9] = 72 h, cell viability, culture for 3 days, read-out: MCF7
[10] = 192 h, sphere cell viability, culture for 8 days, read-out: MCF7-SP
[11] = 72 h, cell viability, culture for 3 days, read-out: A2780
[12] = Table 2, read-out: concentration at which Pin1 inhibitory activity was exhibited
[13] = concentration at which the Pin1 enzyme activity is inhibited, 2 hours at room temperature, fluorescence 490 nm/520 nm, read-out: Pin 1 inhibition
[14] = MCF7, text summary of Table 4, read-out: MCF7 cell concentration
[15] = text summary of Table 4, read-out: MCF7-SP cell concentration
[16] = A2780, Table 5, read-out: A2780 cell concentration

T1 sequence (Q13526 whole entry): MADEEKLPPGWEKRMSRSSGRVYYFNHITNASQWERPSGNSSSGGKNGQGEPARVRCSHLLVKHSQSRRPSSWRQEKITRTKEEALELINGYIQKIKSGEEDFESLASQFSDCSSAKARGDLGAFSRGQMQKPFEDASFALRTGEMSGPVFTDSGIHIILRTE

O=S(=O)(NCCCc1c[nH]c2ccc(Cl)cc12)c1ccc(OCCCN2CCNCC2)nc1 [Example 79, N-(3-(5-chloro-1H-indole-3-yl)propyl)-6-(3-(piperazine-1-yl)propoxy)pyridine-3-sulfonamide]
pIC50 [1, 7]: > 6.00
pIC50 [1, 8]: > 6.00
pIC50 [2, 9]: < 5.00
pIC50 [3, 10]: < 5.00
pIC50 [4, 11]: < 5.00
activity at 10 µM [5]: 0 to 35%
pIC50 [6, 12]: > 6.00
pIC50 [6, 13]: > 6.00

CN1CCCN(CCCOc2ccc(S(=O)(=O)NCCCc3c[nH]c4ccc(Cl)cc34)cc2)CC1 [Example 83, N-(3-(5-chloro-1H-indol-3-yl)propyl)-4-(3-(4-methyl-1,4-diazepan-1-yl)propoxy)benzenesulfonamide]
pIC50 [1, 7]: > 6.00
pIC50 [1, 8]: > 6.00
pIC50 [2, 9]: 5.00 to 6.00
pIC50 [2, 14]: > 5.00
pIC50 [3, 10]: 5.00 to 6.00
pIC50 [3, 15]: > 5.00
pIC50 [4, 11]: 5.00 to 6.00
pIC50 [4, 16]: > 5.00
activity at 10 µM [5]: 0 to 35%
pIC50 [6, 12]: > 6.00
pIC50 [6, 13]: > 6.00

O=S(=O)(NCCCc1c[nH]c2ccc(Cl)cc12)c1ccc(CCCCN2CCNCC2)cc1 [Example 91, N-(3-(5-chloro-1H-indol-3-yl)propyl)-4-(4-(piperazin-1-yl)butyl)benzenesulfonamide]
pIC50 [1, 7]: > 6.00
pIC50 [1, 8]: > 6.00
pIC50 [2, 9]: 5.00 to 6.00
pIC50 [2, 14]: > 5.00
pIC50 [3, 10]: 5.00 to 6.00
pIC50 [3, 15]: > 5.00
pIC50 [4, 11]: < 5.00
activity at 10 µM [5]: 0 to 35%
pIC50 [6, 12]: > 6.00
pIC50 [6, 13]: > 6.00

CN1CCN(CCCNc2ccc(S(=O)(=O)NCCCc3c[nH]c4ccc(Cl)cc34)cc2)CC1 [Example 98, N-(3-(5-chloro-1H-indole-3-yl)propyl)-4-((3-(4-methylpiperazine-1-yl)propyl)amino)benzenesulfonamide]
pIC50 [1, 7]: 5.00 to 6.00
pIC50 [2, 9]: < 5.00
pIC50 [3, 10]: < 5.00
pIC50 [4, 11]: 5.00 to 6.00
pIC50 [4, 16]: > 5.00
activity at 10 µM [5]: 0 to 35%
pIC50 [6, 12]: > 6.00
pIC50 [6, 13]: > 6.00

O=S(=O)(NCCCc1c[nH]c2ccc(Cl)cc12)c1ccc(CCCCC2CCNCC2)cc1 [Example 99, N-(3-(5-chloro-1H-indole-3-yl)propyl)-4-(4-(piperidine-4-yl)butyl)benzenesulfonamide]
pIC50 [1, 7]: > 6.00
pIC50 [1, 8]: > 6.00
pIC50 [2, 9]: 5.00 to 6.00
pIC50 [2, 14]: > 5.00
pIC50 [3, 10]: 5.00 to 6.00
pIC50 [3, 15]: > 5.00
pIC50 [4, 11]: 5.00 to 6.00
pIC50 [4, 16]: > 5.00
activity at 10 µM [5]: 0 to 35%
pIC50 [6, 12]: > 6.00
pIC50 [6, 13]: > 6.00

CN1CCN(c2cccc(Oc3ccc(S(=O)(=O)NCCCc4c[nH]c5ccc(Cl)cc45)cc3)c2)CC1 [Example 118, N-(3-(5-chloro-1H-indole-3-yl)propyl)-4-(3-(4-methylpiperazine-1-yl)phenoxy)benzenesulfonamide]
pIC50 [1, 7]: > 6.00
pIC50 [1, 8]: > 6.00
pIC50 [2, 9]: 5.00 to 6.00
pIC50 [2, 14]: > 5.00
pIC50 [3, 10]: 5.00 to 6.00
pIC50 [3, 15]: > 5.00
pIC50 [4, 11]: < 5.00
activity at 10 µM [5]: 50 to 70%
pIC50 [6, 12]: > 6.00
pIC50 [6, 13]: > 6.00
